Measured values published in BindingDB's records for doi:10.1016/S0960-894X(00)80241-3 (1991).

Experiment: Inhibition of [14C]arachidonic acid conversion to 5-HETE by broken cell 5-lipoxygenase in vitro (guinea pig PMN)

IC50 [nM]	Compound
420	COc1ccc2c(c1C(=O)NO)Nc1ccccc1O2 [2-Methoxy-10H-phenoxazine-1-carboxylic acid hydroxyamide]
770	COC(=O)c1cccc2c1Nc1ccccc1O2 [10H-Phenoxazine-1-carboxylic acid methyl ester]
610	O=C(O)c1cccc2c1Nc1ccccc1O2 [10H-Phenoxazine-1-carboxylic acid]
87	CN(O)C(=O)c1ccc2c(c1)Nc1ccccc1O2 [10H-Phenoxazine-2-carboxylic acid hydroxy-methyl-amide]
65	COC(=O)c1ccc2c(c1)Nc1ccccc1O2 [10H-Phenoxazine-2-carboxylic acid methyl ester]
4600	O=C(O)c1ccc2c(c1)Nc1ccccc1O2 [10H-Phenoxazine-2-carboxylic acid]
35	CCOC(=O)/C=C/c1ccc2c(c1)Nc1ccccc1O2 [(E)-3-(10H-Phenoxazin-2-yl)-acrylic acid ethyl ester]
1200	O=C(O)/C=C/c1ccc2c(c1)Nc1ccccc1O2 [(E)-3-(10H-Phenoxazin-2-yl)-acrylic acid]
85	CN(O)C(=O)/C=C/c1ccc2c(c1)Nc1ccccc1O2 [(E)-N-Hydroxy-N-methyl-3-(10H-phenoxazin-2-yl)-acrylamide]

Compound	IC50 [nM]
c1ccc2c(c1)Nc1ccccc1O2 [10H-Phenoxazine]	20
